Each structure is given as a SMILES string. Bounds are passed on as bounds.

In one experiment the test system is wild-type virus NL4-3. Put plainly: TZM infection assay (cell culture-based viral inhibition), wild-type virus. The note with it: Human immunodeficiency virus 1, NL43; wild-type NL4-3 virus; concentration at time of virus production reducing infectivity by 50%; TZM-bl readout. Set-up: species or system HIV-1. How it is done: (§1) PI dilutions were prepared by taking 10 µM stocked and performing a fivefold serial dilution using RPMI media (final drug concentration is […]). One dilution of drug was added to each well of a 24-well plate and repeated so each virus would have a full set of dilutions. Viruses for the assay were made by seeding 3 × 10^6 CEM cells in a 24-well plate and incubating with 250 µl of virus at 37°C for 2–3 hr before bringing the culture to 10 ml with RPMI media. After 48 hr, the medium was changed and repeated every 48 hr after until the culture had undergone CPE. Infected CEM cells were collected and diluted so that 1 ml of cells could be plated in each well containing a unique drug dilution. Then 24 hr later the virus supernatant was collected from each well followed by filtering through a […] then placed in –80°C. Viruses were thawed and added to 96-well plates in triplicate. TZM-bl cells were collected and diluted to a concentration of 2 × 10^5 cells/ml, 100 µl were added on top of the pre-plated viruses. Plates were kept in 37°C, 5% CO2 in an incubator for 48 hr. After 48 hr, the cells in the plates were lysed by removing the medium, washing two times with 100 µl PBS, and then lysed with 1× lysis buffer (made from 5× Promega Firefly Lysis Buffer). Plates were frozen for at least 24 hr and then thawed for 2 hr before analyzing with Promega Firefly Luciferase Kit on a luminometer. Data was analyzed with Prism 7 to fit sigmoidal dose–response curves.

Experiment [1] deals with virus pool selected to 5000 nM inhibitor. Briefly: TZM infection assay, inhibitor-selected resistant virus pools. In kind it is cell-based, HIV-1. The note with it: Human immunodeficiency virus 1, read-out: EC50 Viral culture (5000 nM). How it is done:
In addition to the sequence of the terminally selected virus, we validated that selection occurred over the entire course of the selection protocol. […] In comparing the number of mutations present in cultures using the I84V versus the I50V pathway, we noted that on average there were more mutations in the I50V viruses at the intermediate drug concentration compared to the I84V viruses (100 nM, p=0.03), and this trend continued at the higher drug concentration.
(§2) An aliquot of 3 × 10^6 CEMx174 cells was incubated at 37°C for 2–3 hr with 250 µl of a virus stock generated from the HIV-1 infectious molecular clone pNL4-3. The culture volume was then brought to 10 ml with RPMI medium. […] After 48 hr and every 48 hr after, the cells were pelleted by centrifugation and 10 ml of fresh medium and inhibitors were added. When the culture had undergone extensive cytopathic effect (CPE) indicative of viral replication, the supernatant medium and the cells were harvested separately and stored at –80°C. The virus-containing supernatant was used to start the next round of infection, and after several rounds at the initial concentration, the inhibitor concentration was increased 1.5-fold at each subsequent round of virus passage.
as §1

Experiment [2] has as its system HIV-1 NL4-3 wild-type virus. Briefly: Selection for resistance in CEMx174 culture with escalating inhibitor, start wild-type virus, Primer ID deep sequencing. The format is cell-based. How it is done: . The selection experiments were performed under two separate starting conditions: first when the starting virus was generated from the NL4-3 clone (this clone closely approximates the clade B consensus for the protease amino acid sequence and will be referred to as ‘wild type’), then again when the starting virus was a mixture of 26 isogenic viruses each with a single mutation associated with drug resistance in the NL4-3 background. […]. For technical reasons, only five of the selections starting with the mixture of mutants reached an inhibitor concentration as high as 400 nM and are reported here (Figure 2—figure supplement 3).
Resistance mutations selected in the protease coding domain during the escalating selective pressure of increasing PI concentration were examined at various timepoints using a next-generation sequencing (NGS) protocol that included Primer ID with the MiSeq platform ([Zhou et al., 2015]). We first examined the sequence of the most abundant variant in each of the two selection schemes present at the highest inhibitor concentration reached (Figure 2A). For those selections that reached 5 μM, 8–14 mutations were present in the most abundant variant. Typically the next two most abundant variants in the population differed by a single amino acid, and on average the three most abundant variants in the 5 μM cultures accounted for 88% of the total viral population (Figure 2—source data 1). Evolution of resistance followed two pathways, one based on I50V and one based on I84V. In three cultures, V2wt, V5wt, and V2mut (which reached either 4 or 5 μM final drug concentration; V2wt indicates the virus pool selected with UMASS-2 starting with wild-type virus), these two mutations, I84V and I50V, became linked on the same genome (Figure 2A) showing they are not mutually exclusive; […].
as §2
We used the PID protocol to prepare MiSeq PID libraries with multiplexed primers. Viral RNA was extracted from plasma samples using the QIAamp viral RNA mini kit (QIAGEN, Hilden, Germany). Complementary DNA (cDNA) was synthesized using a cDNA primer mixture targeting protease (PR) with a block of random nucleotides in each cDNA primer serving as the PID, and SuperScript III RT (Thermo Fisher). After two rounds of bead purification of the cDNA, we amplified the cDNA using a mixture of a forward primer that targeted the upstream coding region, followed by a second round of PCR to incorporate the Illumina adaptor sequences. Gel-purified libraries were pooled and sequenced using the MiSeq 300 base paired-end sequencing protocol (Illumina). The sequencing covered the HIV-1 PR region (HXB2 2648-2914, 3001-3257).
We used the Illumina bcl2fastq pipeline for the initial processing and constructed template consensus sequences (TCSs) with TCS pipeline version 1.33 (https://github.com/SwanstromLab/PID) ([Zhou, 2019]). We then aligned TCSs to an HXB2 reference to remove sequences not at the targeted region or that had large deletions. We used the Entropy tool at LANL (https://www.hiv.lanl.gov/content/sequence/ENTROPY/entropy.html) to calculate entropy for each specimen. The sequencing data is available at NIH Sequencing Read Archive (SRA) under BioProject ID PRJNA853351.

The target in a further experiment is T1, wild-type NL4-3 protease (Human immunodeficiency virus type 1 group M subtype B, UniProt P12497, Q495K).
T1 construct: the gene encoding the desired HIV-1 protease was subcloned into the heat-inducible pXC35 expression vector; made in house
Briefly: Ki assay (FRET enzyme inhibition), wild-type protease. The format is biochemical, HIV-1. The note with it: limit of detection 5 pM, read-out: Ki WT. How it is done:
(§3) The highly mutated, resistant, protease variant genes were purchased on a pET11a plasmid with codon optimization for protein expression in Escherichia coli (Genewiz). A Q7K mutation was included to prevent autoproteolysis ([Rosé et al., 1993]). The expression, isolation, and purification of WT and mutant HIV-1 proteases used for enzymatic assays were carried out as previously described ([Henes et al., 2019]; [King et al., 2002]; [Özen et al., 2014]). Briefly, the gene encoding the desired HIV-1 protease was subcloned into the heat-inducible pXC35 expression vector (ATCC) and transformed into E. coli TAP-106 cells. Cells grown in 6 l of Terrific Broth were lysed with a cell disruptor twice, and the protein was purified from inclusion bodies ([Hui et al., 1993]). Inclusion bodies, isolated as a pellet after centrifugation, were dissolved in 50% acetic acid followed by another round of centrifugation at 19,000 rpm for 30 min to remove insoluble impurities. Size-exclusion chromatography was carried out on a 2.1 l Sephadex G-75 Superfine (Sigma Chemical) column equilibrated with 50% acetic acid to separate high molecular weight proteins from the desired protease. Pure fractions of HIV-1 protease were refolded using a tenfold dilution of refolding buffer (0.05 M sodium acetate at pH 5.5, 5% ethylene glycol, 10% glycerol, and 5 µM DTT). Folded protein was concentrated to 0.5–3 mg/ml and stored. The stored protease was used in KM and Ki assays.
(§4) Enzyme inhibition constants (Ki values) were determined as previously described ([Henes et al., 2019]; [Lockbaum et al., 2019]; [Matayoshi et al., 1990]; [Windsor and Raines, 2015]). Briefly, in a 96-well plate, inhibitors were serially diluted down from […] depending on protease resistance. All samples were incubated with 5 nM protein for 1 hr. A 10-amino acid substrate containing an optimized protease cleavage site ([Windsor and Raines, 2015]), purchased from Bachem, with an EDANS/DABCYL FRET pair was dissolved in 4% DMSO at 120 µM. Using a PerkinElmer Envision plate reader, 5 µl of the 120 µM substrate were added to the 96-well plate to a final concentration of 10 µM. […] Data was analyzed with Prism7.

The target in a further experiment is T2, I84V mutant protease (Human immunodeficiency virus type 1 group M subtype B, UniProt P12497, I572V/Q495K).
T2 construct: the gene encoding the desired HIV-1 protease was subcloned into the heat-inducible pXC35 expression vector; made in house
Put plainly: Ki assay (FRET enzyme inhibition), I84V protease. In kind it is biochemical, HIV-1. The note with it: I84V drug-resistant protease variant. How it is done: as §3, §4

In experiment [3] the target is T3, I50V/A71V mutant protease (Human immunodeficiency virus type 1 group M subtype B, UniProt P12497, A559V/I538V/Q495K).
T3 construct: the gene encoding the desired HIV-1 protease was subcloned into the heat-inducible pXC35 expression vector; made in house
Briefly: Ki assay (FRET enzyme inhibition), I50V/A71V protease. The format is biochemical, HIV-1. The note with it: I50V/A71V drug-resistant protease variant. Here is the method: as §3, §4

For `CC(C)CN(C[C@@H](O)[C@H](Cc1ccccc1)NC(=O)O[C@H]1CO[C@H]2OCC[C@H]21)S(=O)(=O)c1ccc(N)cc1` [DRV, Darunavir, reference compound], the EC50 in the experiment with wild-type virus NL4-3 is 7.7 ± 1.6 nM; in experiment [1], greater than 100000 nM. The “Abundance of variant at the last time point” value (“Abundance of variant” below) came out at 10.3% in experiment [2] (variant 10I/32I/41I/46I/47V/82I/84V/85V, passage 43, [PI] 1350 nM); 62.8% in experiment [2] (variant 32I/41I/46I/47V/82I/84V/85V, passage 43, [PI] 1350 nM); 10.1% in experiment [2] (variant 32I/41I/46I/47V/82L/84V/85V, passage 43, [PI] 1350 nM).
Turning to `CC[C@H](C)CN(C[C@@H](O)[C@H](Cc1ccccc1)NC(=O)O[C@H]1CO[C@H]2OCC[C@H]21)S(=O)(=O)c1ccc(OC)cc1` [UMASS-2], the Ki on wild-type NL4-3 protease was less than 0.005 nM; at I84V mutant protease it was less than 0.005 nM; in experiment [3], 0.015 ± 0.0027 nM. This molecule also came in with an EC50 in the experiment on wild-type virus NL4-3 of 2.4 ± 0.3 nM. Further, the “Abundance of variant” value in experiment [2] (variant 10F/33F/46I/47V/50V/71V/82I/84V, passage 82, [PI] 5000 nM) came out at 37.5%; in experiment [2] (variant 28S/32I/33F/46I/47V/50V/71V/82I/84V, passage 82, [PI] 5000 nM), 33.5%; in experiment [2] (variant 33F/46I/47V/50V/71V/82I/84V, passage 82, [PI] 5000 nM), 4.2%.
With `CCC(CC)CN(C[C@@H](O)[C@H](Cc1ccccc1)NC(=O)O[C@H]1CO[C@H]2OCC[C@H]21)S(=O)(=O)c1ccc(CO)cc1` [UMASS-8], the Ki on wild-type NL4-3 protease is less than 0.005 nM; at I84V mutant protease it was less than 0.005 nM; in experiment [3], 0.0554 ± 0.004 nM. The molecule further returned an EC50 in the experiment with wild-type virus NL4-3 of 4.2 ± 0.9 nM. The “Abundance of variant” value is given as 55.4% in experiment [2] (variant 10F/12K/33F/46I/47V/50V/53L/54L/63P/71V/82I/85V, passage 67, [PI] 5000 nM); 0.1% in experiment [2] (variant 10F/12K/33F/46I/47V/50V/53L/54L/63P/71V/82I/85V/87K, passage 67, [PI] 5000 nM); 41.9% in experiment [2] (variant 10F/33F/46I/47V/50V/53L/54L/63P/71V/82I/85V, passage 67, [PI] 5000 nM).
As for `CCC(CC)CN(C[C@@H](O)[C@H](Cc1ccccc1)NC(=O)O[C@H]1CO[C@H]2OCC[C@H]21)S(=O)(=O)c1ccc2ncsc2c1` [UMASS-10], the inhibition constant (Ki) on wild-type NL4-3 protease was less than 0.005 nM; on I84V mutant protease, 0.0143 ± 0.0093 nM; in experiment [3], 0.0058 ± 0.0011 nM. A half-maximal effect with wild-type virus NL4-3 (EC50) was put at 4.1 ± 0.9 nM. For the same molecule, the “Abundance of variant” value in experiment [2] (variant 10F/13V/33F/43T/46I/47V/50V/54L/71V/77I/82L/88S, passage 77, [PI] 5000 nM) was found to be 1.6%; in experiment [2] (variant 10F/13V/33F/43T/46I/47V/50V/54L/71V/82L/87K/88S, passage 77, [PI] 5000 nM) it was 0.2%; in experiment [2] (variant 10F/13V/33F/43T/46I/47V/50V/54L/71V/82L/88S, passage 77, [PI] 5000 nM), 91.2%.

By EC50 is commonly meant the concentration giving half of the maximal effect. One may read the Ki as the dissociation constant of the complex between target and ligand, obtained from inhibition or displacement.
